Results from ChEMBL document CHEMBL1671819, “Interactions of monoamine oxidases with the antiepileptic drug zonisamide: specificity of inhibition and structure of the human monoamine oxidase B complex” (J Med Chem, 2011).

Assays:
[1] = biological target: T1, Amine oxidase [flavin-containing] A (Homo sapiens, UniProt P21397); experiment: Competitive inhibition of human MAOA by spectrophotometry
T1 sequence (P21397 whole entry): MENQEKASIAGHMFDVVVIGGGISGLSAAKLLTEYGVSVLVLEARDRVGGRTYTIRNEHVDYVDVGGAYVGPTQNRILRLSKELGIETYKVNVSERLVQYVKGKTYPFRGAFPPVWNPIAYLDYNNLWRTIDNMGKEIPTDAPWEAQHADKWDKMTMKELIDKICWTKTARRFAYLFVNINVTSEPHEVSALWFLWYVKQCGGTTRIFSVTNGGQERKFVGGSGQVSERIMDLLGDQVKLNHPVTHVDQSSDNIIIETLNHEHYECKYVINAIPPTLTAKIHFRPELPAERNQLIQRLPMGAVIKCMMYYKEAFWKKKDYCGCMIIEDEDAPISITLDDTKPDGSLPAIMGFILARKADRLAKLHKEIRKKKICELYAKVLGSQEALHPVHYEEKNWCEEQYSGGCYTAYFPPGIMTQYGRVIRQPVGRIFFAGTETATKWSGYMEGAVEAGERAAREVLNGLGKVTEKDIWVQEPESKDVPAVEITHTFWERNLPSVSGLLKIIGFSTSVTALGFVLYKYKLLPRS

[2] = biological target: T2, Amine oxidase [flavin-containing] B (Homo sapiens, UniProt P27338); experiment: Competitive inhibition of human MAO B by spectrophotometry
T2 sequence (P27338 whole entry): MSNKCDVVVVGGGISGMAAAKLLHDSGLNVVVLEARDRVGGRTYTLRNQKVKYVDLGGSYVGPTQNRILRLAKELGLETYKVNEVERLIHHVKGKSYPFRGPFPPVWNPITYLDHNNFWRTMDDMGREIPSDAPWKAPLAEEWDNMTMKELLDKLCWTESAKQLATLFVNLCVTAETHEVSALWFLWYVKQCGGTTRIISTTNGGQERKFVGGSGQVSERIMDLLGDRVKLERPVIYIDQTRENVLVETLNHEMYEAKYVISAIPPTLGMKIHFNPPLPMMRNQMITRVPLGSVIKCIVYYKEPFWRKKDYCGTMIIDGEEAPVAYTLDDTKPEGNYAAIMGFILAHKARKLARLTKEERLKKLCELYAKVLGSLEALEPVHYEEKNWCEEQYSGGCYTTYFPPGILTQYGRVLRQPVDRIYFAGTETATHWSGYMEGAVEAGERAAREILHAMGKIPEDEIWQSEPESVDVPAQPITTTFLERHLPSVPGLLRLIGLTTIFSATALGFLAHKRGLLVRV

[3] = biological target: T3, Amine oxidase [flavin-containing] A (Rattus norvegicus, UniProt P21396); experiment: Competitive inhibition of rat MAOA by spectrophotometry
T3 sequence (P21396 whole entry): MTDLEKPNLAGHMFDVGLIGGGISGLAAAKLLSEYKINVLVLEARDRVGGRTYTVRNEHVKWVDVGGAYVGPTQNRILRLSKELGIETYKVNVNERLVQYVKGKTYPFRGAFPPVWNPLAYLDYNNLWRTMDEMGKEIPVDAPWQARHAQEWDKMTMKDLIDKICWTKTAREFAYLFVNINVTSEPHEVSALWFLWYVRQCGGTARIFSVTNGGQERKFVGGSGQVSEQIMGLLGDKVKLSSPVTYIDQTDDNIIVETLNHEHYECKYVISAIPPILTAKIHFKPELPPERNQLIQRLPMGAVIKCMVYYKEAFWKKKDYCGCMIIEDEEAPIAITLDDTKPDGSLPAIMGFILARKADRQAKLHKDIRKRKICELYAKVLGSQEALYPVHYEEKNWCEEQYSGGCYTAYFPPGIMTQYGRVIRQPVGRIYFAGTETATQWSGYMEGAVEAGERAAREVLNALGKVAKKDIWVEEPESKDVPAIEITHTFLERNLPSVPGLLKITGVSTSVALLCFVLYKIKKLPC

[4] = biological target: T4, Amine oxidase [flavin-containing] B (Rattus norvegicus, UniProt P19643); experiment: Competitive inhibition of rat MAO B by spectrophotometry
T4 sequence (P19643 whole entry): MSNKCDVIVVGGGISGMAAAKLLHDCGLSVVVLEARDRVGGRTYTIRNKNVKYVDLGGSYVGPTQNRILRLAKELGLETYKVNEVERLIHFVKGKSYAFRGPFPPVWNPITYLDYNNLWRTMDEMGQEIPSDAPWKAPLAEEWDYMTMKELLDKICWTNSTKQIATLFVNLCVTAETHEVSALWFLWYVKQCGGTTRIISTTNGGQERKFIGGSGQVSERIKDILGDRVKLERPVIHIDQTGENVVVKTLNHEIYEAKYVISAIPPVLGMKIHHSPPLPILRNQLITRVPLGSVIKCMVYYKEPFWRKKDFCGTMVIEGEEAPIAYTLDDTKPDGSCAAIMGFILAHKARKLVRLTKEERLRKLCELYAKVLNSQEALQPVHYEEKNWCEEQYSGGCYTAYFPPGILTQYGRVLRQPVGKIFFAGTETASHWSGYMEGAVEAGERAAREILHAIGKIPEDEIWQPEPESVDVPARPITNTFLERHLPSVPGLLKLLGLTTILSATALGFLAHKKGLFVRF

Serum = experiment: Drug level in parkinson's disease patient serum at 25 mg/day; type: ADME, cell-free; details: human, read-out: Drug uptake
[5] = biological target: T5, Amine oxidase [flavin-containing] (Danio rerio, UniProt Q6NSN2); experiment: Competitive inhibition of zebrafish MAO by spectrophotometry
T5 sequence (Q6NSN2 whole entry): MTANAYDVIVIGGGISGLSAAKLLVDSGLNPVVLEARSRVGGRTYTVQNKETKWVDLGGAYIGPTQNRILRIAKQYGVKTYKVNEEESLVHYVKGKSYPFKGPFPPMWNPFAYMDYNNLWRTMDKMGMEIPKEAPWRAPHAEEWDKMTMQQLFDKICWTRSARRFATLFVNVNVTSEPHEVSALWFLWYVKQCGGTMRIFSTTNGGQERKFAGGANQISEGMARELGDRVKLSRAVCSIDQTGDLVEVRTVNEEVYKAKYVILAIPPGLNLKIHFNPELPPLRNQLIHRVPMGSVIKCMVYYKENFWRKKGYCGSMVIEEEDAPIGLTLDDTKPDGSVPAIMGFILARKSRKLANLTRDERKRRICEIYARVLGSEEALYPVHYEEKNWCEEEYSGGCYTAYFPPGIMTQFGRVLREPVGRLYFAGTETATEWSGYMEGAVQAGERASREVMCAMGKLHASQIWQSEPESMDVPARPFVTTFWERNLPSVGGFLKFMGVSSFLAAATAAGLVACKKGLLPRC

With `NS(=O)(=O)Cc1noc2ccccc12` [ZONISAMIDE] the “inhibition (INH)” value [1] was “Not Active”, the Ki [2] was 3.1 µM and the “inhibition (INH)” value [3] was “Not Active”. It also gave a Ki [4] of 2.9 µM, a concentration (Serum) of 600 nM and a Ki [5] of 30.8 µM.
